From patent US20260137653A1, “USE OF HEROMBOPAG OR PHARMACEUTICALLY ACCEPTABLE SALT THEREOF IN TREATMENT OF TUMOR CHEMOTHERAPY-INDUCED THROMBOCYTOPENIA” (JIANGSU HENGRUI PHARMACEUTICALS CO., LTD., priority 2022, published 2026)

Test system: patients with chemotherapy-induced thrombocytopenia (platelet count <75×10^9/L, chemotherapy delay ≥1 week)
Assay: Randomized placebo-controlled clinical study of herombopag olamine tablets in thrombocytopenia induced by chemotherapy for malignant tumors (Example 1)
Format: in vivo, human
Method: Investigational drug: herombopag olamine tablets, 2.5 mg/tablet, manufactured and provided by Jiangsu Hengrui Pharmaceuticals Co., Ltd.
Control drug: herombopag olamine simulated tablets (placebo), 2.5 mg/tablet, identical in shape, color, weight, etc. to the herombopag olamine tablets, manufactured and provided by Jiangsu Hengrui Pharmaceuticals Co., Ltd.
Patients must meet all of the following inclusion criteria to be eligible for the study: • 1. Age between 18 years and 75 years (inclusive), regardless of gender. • 2. Pathologically or cytologically confirmed diagnosis of malignant tumors, including lung cancer (small cell or non-small cell), breast cancer, bladder cancer, etc. • 3. The subject is currently receiving a chemotherapy regimen on a 21-day cycle (excluding other chemotherapy cycle lengths) and requires the use of one or more chemotherapeutic drugs, such as: • Antimetabolites, including gemcitabine, etc.; • Platinum-based agents, including carboplatin, nedaplatin, cisplatin, lobaplatin, etc.; • Anthracyclines, including doxorubicin, daunorubicin, epirubicin, etc.; • Alkylating agents, including cyclophosphamide, ifosfamide, etc. • 4. The subject experiences a delay of ≥1 week in chemotherapy relative to the expected time due to thrombocytopenia, and the platelet count remains <75×10^9/L. • 5. Physical fitness status ECOG score of 0-1. • 6. The subject has an expected survival period of ≥12 weeks at the time of screening and is able to receive at least 2 or more cycles of the current chemotherapy regimen. • 7. Subjects of childbearing potential must agree to use reliable methods of contraception throughout the study (including male or female condoms, contraceptive foams, contraceptive gels, contraceptive films, contraceptive creams, contraceptive suppositories, abstinence, placement of intrauterine devices, etc.). Female subjects who have undergone a hysterectomy, bilateral salpingectomy, or bilateral tubal ligation or have been postmenopausal for more than 1 year and male subjects who have undergone a bilateral vasectomy or ligation are excluded. • 8. The subject is willing to participate in the study, can provide written informed consent, and has good compliance.
Patients meeting any one of the following criteria are excluded from the study: • 1. Screening or baseline platelet count of <30×10^9/L. • 2. Platelet count of <75×10^9/L prior to the first dose of chemotherapy. • 3. Hematopoietic diseases other than chemotherapy-induced thrombocytopenia (CIT), including but not limited to leukemia, primary immune thrombocytopenia, myeloproliferative diseases, multiple myeloma, and myelodysplastic syndrome. • 4. […]

CC1=NN(c2ccc3c(c2)CCCC3)C(=O)/C1=N\Nc1cccc(-c2ccc(C(=O)O)o2)c1O [herombopag olamine tablets, herombopag]
OR value for achieving the primary study endpoint, investigational group vs placebo group (95% CI 2.82-38.65, p=0.0001): 10.44
proportion of subjects in which the drug is therapeutically effective (patients achieving the primary study endpoint) (investigational group n=28 (17/28), starting dose 7.5 mg once daily oral, two consecutive 21-day chemotherapy cycles, 95% CI 40.6-78.5, placebo 4/31 (12.9%)): 60.7%
incidence of adverse events (investigational group vs placebo group): comparable between the investigational group and the placebo group
grade 3 or higher grade treatment-related adverse events or treatment-related serious adverse events (investigational group, starting dose 7.5 mg once daily): No grade 3 or higher grade treatment-related adverse events or treatment-related serious adverse events were observed
